US20030087844A1, “Ribavirin syrup formulations” (SCHERING CORPORATION, priority 2001, published 2003)

Experiment: Storage stability testing of the syrup at ICH conditions, HPLC assay of ribavirin and degradation products
Assay type: physicochemical
From the text: The stability of a syrup formulation of the present invention was compared to conventional liquid formulations that contain ribavirin that are marketed by ICN. Degradation of syrup formulations containing ribavirin is observed during storage stability testing, as is evidenced by declining concentrations of the active ingredient and a concomitant formation of degradates. The most frequent degradation product that has been identified is the carboxylic acid product of ribavirin. Based upon these tests, it is believed that the syrup formulations of the present invention have a shelf life of greater than two years.
This analysis was performed via HPLC methods that are known to one of skill in the art. Stability data was also performed on the formulation of the present invention at 18 months after formulation, and measured by HPLC techniques as known by one of skill in the art as set forth in Table 2 below.
Only results that exceed the limit of quantitation (LOQ) were included in the attached tables. The LOQ of each degradation product is 0.05%. Synthesis-related impurities of ribavirin, the α-anomer and 5′-acetylribavirin, were not degradation products and are not monitored in the drug product. Each degradation product result was rounded to one significant figure according to the rounding convention described in the USP. The results for total degradation products that were derived from the sum of individual degradation products that contain one more significant figure than those shown in the data tables and then rounded to one decimal place.

Measured: ribavirin degradation after storage

NC(=O)c1ncn([C@@H]2O[C@H](CO)[C@@H](O)[C@H]2O)n1 [Ribavirin, 1β-D ribofuranosyl-1H-1,2,4 triazole 3-carboxamide]
did not degrade significantly: 25° C./60% RH, up to 12 months | 30° C./60% RH, up to 12 months | ICH accelerated condition 40° C./75% RH, up to 6 months
